Test results reported in patent US10004730B2, “Small molecules targeting androgen receptor nuclear localization and/or level in prostate cancer” (University of Pittsburgh-Of the Commonwealth System of …, priority 2011, dated 2018).

Legend:
C4-2 cells = experiment: Cell survival, crystal violet staining, C4-2; assay type: cell-based; settings: 48 hrs
Experimental: FIGS. 8A and 8B. Effect of SID 14730725 and SID 3712502 on survival of PC3 (FIG. 8A) and C4-2 cells (FIG. 8B). PC3 or C4-2 cells were plated in 12-well plates at 2,500 cell per well in RPMI 1640 complete medium. After 24 hrs, the cells were treated with SID 14730725 or SID 3712502 at the indicated concentrations for 48 hrs. The wells were washed with PBS thrice and fixed in 0.5% crystal Violet in methanol. C=control; treated with vehicle DMSO.

LNCaP cells = experiment: BrdU incorporation, LNCaP; assay type: cell-based; settings: 48 hrs
Experimental: (§1) FIGS. 14A-F. Effect of SID 3712502 at indicated concentrations on BrdU incorporation in cultured AR-positive LNCaP (FIG. 14A), C4-2 (FIG. 14B), 22Rv1 (FIG. 14C), LAPC4 (FIG. 14D) cells, and AR-negative DU145 (FIG. 14E) and PC3 (FIG. 14F) cells. Cells were plated in 12-well plates at 2,500 cell per well in RPMI 1640 complete medium. After 24 hrs, the cells were treated with SID 3712502 at the indicated concentrations for 48 hrs and BrdU incorporation was assayed according to manufacturer's instructions (Invitrogen BrdU staining kit; catalog #: 93-3943). The percentage of BrdU-positive cells was determined and then normalized to generate relative BrdU index. Ctrl=DMSO control.

DU145 cells = experiment: BrdU incorporation, DU145; assay type: cell-based; settings: DU145, up to 50 uM, 48 hrs
Experimental: as §1

PC3 cells = experiment: BrdU incorporation, PC3; assay type: cell-based; settings: PC3, up to 50 uM, 48 hrs
Experimental: as §1

PC3 tumors = experiment: PC3 xenograft tumors in castrated SCID mice; assay type: in vivo; settings: i.p. 25 mg/kg every other day
Experimental: FIGS. 15A-B. SID 3712502 inhibited the growth of castration resistant 22Rv1 xenograft tumors (FIG. 15A), but not PC3 tumors (FIG. 15B). 22Rv1 or PC3 tumors were established by s.c. injection of 1×10^6 cells into young adult male SCID mice. SCID mice were castrated and randomized when tumor volume reached ˜400 uL. Mice received i.p. delivery of SID 3712502 (25 mg/kg body weight) or vehicle control EPL every other day, beginning 4 days after castration (injection indicated by arrows). Each group consisted of 10 mice for 22Rv1, and 8 mice for PC3 tumors. Tumor volumes were measured using micro-calipers and calculated using the formula (length×width^2)/2. Black and red lines represent data from the animals treated with vehicle (C) and SID 3712502 (SID), respectively. P value was calculated using a two-way ANOVA with the Bonferrroni correction (GraphPad). Error bars=SEM. **p<0.01.

[1] = Pilot toxicity experiment in mice; assay type: in vivo; settings: all doses tested, highest 100 mg/kg; data not shown
Experimental: […]. […] A pilot experiment was also performed testing the toxicity of SID 3712502 in mice.

Cc1cccc(N2CCN(C(=O)CSCc3c(C)noc3C)CC2)c1C [SID 3712502, 2-[(3,5-dimethyl-1,2-oxazol-4-yl)methylsulfanyl]-1-[4-(2,3-dimethylphenyl)piperazin-1-yl]ethanone]
cytotoxicity (C4-2 cells): little or no cytotoxicity
proliferation (BrdU incorporation) (LNCaP cells): inhibited the proliferation
proliferation (BrdU incorporation) (DU145 cells): no detectable effect
proliferation (BrdU incorporation) (PC3 cells): no detectable effect
growth of AR-negative PC3 tumor (PC3 tumors): did not inhibit
toxicity in mice [1]: no identifiable effect
